We go through three compounds from US8992945B2, “Supramacromolecular polymer complexes providing controlled nitric oxide release for healing wounds” (University of Toronto, priority 2007, dated 2015).

Data set [1] can be described thus: Kinetics of NO decomposition from RSNOs in aqueous medium (UV-Vis absorbance at 545 nm). Format: physicochemical. To be noted: for NO decomposition rate (order of decay slopes): 0.1 N HCl, 22° C., similar initial solution concentrations, FIG. 5. As to the method:
In this invention, GSHEE and phytochelatin are being used for the first time as NO donors. […] Their stability in aqueous medium was explored using the UV-Vis Spectrophotometer. Solutions of all RSNOs for this stability study were synthesized according to Example 1. Their decomposition kinetics in these solutions at room temperature was obtained from the time dependent absorbance changes at 545 nm in time intervals of 10 min.
A good linearity is obtained for all three curves, from the decay slopes, it can be seen that NO decomposition rate decreases in the order of GSNO>S-Nitroso-GSHEE>S-nitroso-PC5.

For data set [2] the following is noted: NO endogenously synthesized by vascular endothelial cells; cited from earlier work.

Molecules are shown by their SMILES.

Regarding `N[C@@H](CCC(=O)N[C@@H](CSN=O)C(=O)NCC(=O)O)C(=O)O` [GSNO, S-nitrosoglutathione], in data set [1], the “NO decomposition rate (order of decay slopes)” value is on record as “GSNO>S-Nitroso-GSHEE>S-nitroso-PC5”. For the same compound, the “NO dissociation from GSNO” value in data set [1] (acidic and neutral medium, room condition (22° C.), FIG. 1) is recorded as “continuously dissociates”.

For `[N]=O` [NO, nitric oxide], in data set [2], the biological half life is at most 5 sec.

Regarding `CCOC(=O)CNC(=O)C(CSN=O)NC(=O)CCC(N)C(=O)O` (stereo not shown) [S-Nitroso-GSHEE], in data set [1], the “NO decomposition rate (order of decay slopes)” value was “GSNO>S-Nitroso-GSHEE>S-nitroso-PC5”.
